According to patent publication US20190330142A1, “INHIBITORS OF MTOR-DEPTOR INTERACTIONS AND METHODS OF USE THEREOF” (The Regents of the University of California, priority 2016, published 2019):
Entries after “also recorded” stand apart in the source; their conditions may differ. Read-outs that look alike come from different tables or passages of the source.

Tests used:
[1] = system: p70 phosphorylation (mTORC1 activity) in 8226 cells; experiment: p70 phosphorylation Western blot (TORC1 activity) in 8226 cells; assay type: cell-based; conditions: 8226 cells, 0.5 uM, 6 hrs; for p70 phosphorylation vs the parent B: compound B arbitrarily 1; for induction of p70 phosphorylation: compared to compound B
Procedure: In mTORC1, mTOR phosphorylates the p70S6 kinase.
The 8226 and MM1.S myeloma cell lines were purchased from ATCC. The cell lines were characterized by FISH analysis and shown to contain MAF/Ig translocations. Western blot confirmed a significant over-expression of DEPTOR protein. Both lines were tested for mycoplasma within the last 6 months and were negative. Western blot assay—Protein was extracted and separated by 12.5% SDS-PAGE as previously described (see new ref below). Proteins were transferred to polyvinylidene difluoride membranes and their expression was detected utilizing specific antibodies purchased from Cell Signaling (Beverly, Mass.).

8226 MM cell line = experiment: MTT cytotoxicity assay, 8226 MM cells; conditions: for IC50: 48 h; for anti-MM cytotoxicity in MTT assay compared to parent B: 48 hr MTT
Procedure: In mTORC1, mTOR phosphorylates the p70S6 kinase. Thus, a Western blot was used to test for induction of p70 phosphorylation in this secondary screen. Compounds were tested at 0.5, 1, and 2 uM with 6 hrs in vitro exposure. […] A summary of the p70 phosphorylation data from 4 separate experiments where derivatives were used at 0.5 uM, is shown in FIG. 3B. These first 8 derivatives were also screened for cytotoxicity against the same 8226 MM cell line in 48 hr MTT assays.
P70 phosphorylation was measured in 8226 cells treated for 6 hrs. […] The structures and biological activity of all derivatives are shown in Tables 1-4, categorized by structural modification.
The MTT assay was performed by seeding 1-2×10^4 target cells in 0.1 ml of complete media into wells of a 96 well microtiter plate. After incubation with compounds, the reduction of MTT to formazan by live cells was determined with a microplate ELISA reader equipped with a 570 nm filter.
The induction of p70 phosphorylation by derivative compounds was determined by densitometry, comparing immunoblot signals of phosphorylated p70 vs total p70. This ratio was then compared to that resulting from parental compound B, with the latter ratio arbitrarily placed at ‘1’. The IC50 for MTT cytotoxicity was determined using a range of concentrations of derivatives. Percent apoptosis was enumerated by flow cytometry in drug-treated cultures by subtracting control apoptosis determined from DMSO-treated cultures.

MM1.S MM cell line = experiment: MTT cytotoxicity assay, MM1.S cells; assay type: cell-based; conditions: Homo sapiens, 48 hr
Procedure: The MTT assay was performed by seeding 1-2×10^4 target cells in 0.1 ml of complete media into wells of a 96 well microtiter plate. After incubation with compounds, the reduction of MTT to formazan by live cells was determined with a microplate ELISA reader equipped with a 570 nm filter. Quadruplicate wells were run for each group and the SD of each group was always <5% of the mean.

[2] = read-out: MTT (IC50, uM) 8226, 48 hr

| Compound | p70 phosphorylation vs the parent B [1] | IC50 (8226 MM cell line; read-out: MTT (IC50, uM) 8226) [µM] | IC50 (MM1.S MM cell line) [µM] | induction of p70 phosphorylation [1] | anti-MM cytotoxicity in MTT assay compared to parent B (8226 MM cell line) | IC50 (8226 MM cell line; [2]) [µM] |
| --- | --- | --- | --- | --- | --- | --- |
| ClC1=C(Cl)C(Cl)=C(Cl)C1=NN(c1ccccc1)c1ccccc1 [3l, 2-(Perchlorocyclopenta-2,4-dien-1-ylidene)-1,1-diphenylhydrazine] | no increase | > 3 | > 3 | – | – | – |
| O=C(c1ccccc1)N(N=C1C(Cl)=C(Cl)C(Cl)=C1Cl)C(=O)c1ccccc1 [compound 4b, N-Benzoyl-N′-(perchlorocyclopenta-2,4-dien-1-ylidene)benzohydrazide] | – | 0.8 | 2 | more effective than the parent compound B | lower IC50s; also recorded: enhanced cytotoxic effects | – |
| C#CC(C)(C)OC(=O)NN=C1C(Cl)=C(Cl)C(Cl)=C1Cl [4i, 2-Methylbut-3-yn-2-yl 2-(perchlorocyclopenta-2,4-dien-1-ylidene)hydrazine-1-carboxylate] | – | > 5 | – | minimal increase | – | – |
| COC1(OC)C(Cl)=C(Cl)C(Cl)=C1Cl [7b, 1,2,3,4-Tetrachloro-5,5-dimethoxycyclopenta-1,3-diene] | no increase | – | – | poor activity | poor activity | > 5 |
| CN(C)N=C1C(Cl)=C(Cl)C(Cl)=C1Cl [compound 3a, 1,1-Dimethyl-2-(perchlorocyclopenta-2,4-dien-1-ylidene)hydrazine] | no increase | > 3 | > 3 | – | – | – |
| NN=C1c2ccccc2-c2ccccc21 [6a, (9H-Fluoren-9-ylidene)hydrazine] | no increase | > 5 | – | did not show any improvement | did not show any improvement | – |
| C#CCOC(=O)NN=C1C(Cl)=C(Cl)C(Cl)=C1Cl [compound 4h, Prop-2-yn-1-yl 2-(perchlorocyclopenta-2,4-dien-1-ylidene)hydrazine-1-carboxylate] | – | 0.8 | – | minimal increase | some cytotoxicity; also recorded: enhanced cytotoxic effects | – |
| ClC1=C(Cl)C(Cl)=C(Cl)C1=NNc1ccccc1 [3d, 1-(Perchlorocyclopenta-2,4-dien-1-ylidene)-2-phenylhydrazine] | – | 0.6 | 2 | – | lower IC50s; also recorded: enhanced cytotoxic effects | – |
| Fc1cccc(NN=C2C(Cl)=C(Cl)C(Cl)=C2Cl)c1 [3e, 1-(3-Fluorophenyl)-2-(perchlorocyclopenta-2,4-dien-1-ylidene)hydrazine] | – | 0.5 | 1.5 | – | lower IC50s; also recorded: enhanced cytotoxic effects | – |
| ON=C1C(Cl)=C(Cl)C(Cl)=C1Cl [7a, 2,3,4,5-Tetrachlorocyclopenta-2,4-dien-1-one oxime] | no increase | – | – | poor activity | poor activity | > 5 |
| CC(=O)NN=C1C(Cl)=C(Cl)C(Cl)=C1Cl [4c, N′-(Perchlorocyclopenta-2,4-dien-1-ylidene)acetohydrazide] | no increase | 1 | – | no increase | – | – |
| ClC1=C(Cl)C(Cl)=C(Cl)C1=NNc1cc(Cl)cc(Cl)c1 [3f, 1-(3,5-dichlorophenyl)-2-(perchlorocyclopenta-2,4-dien-1-ylidene)hydrazine] | – | 0.8 | 2 | – | lower IC50s; also recorded: enhanced cytotoxic effects | – |
| Cc1ccc(C(=O)N(N=C2C(Cl)=C(Cl)C(Cl)=C2Cl)C(=O)c2ccc(C)cc2)cc1 [4f, 4-Methyl-N-(4-methylbenzoyl)-N′-(perchlorocyclopenta-2,4-dien-1-ylidene)benzohydrazide] | – | 0.5 | 0.5 | – | enhanced cytotoxic effects | – |
